In patent publication US6068838A, “Purified multimerase” (Baxter Aktiengesellschaft, priority 1996, dated 2000):

Tests used:
[1] = Stability of purified vWF fractions on dialysis incubation; type: physicochemical; conditions: fractions 12 to 20, 24 h dialysis incubation at 37° C., absence of inhibitors, citrate/NaCl buffer or 1 M urea buffer
Experimental: vWF was purified by gal filtration of human cryoprecipitate, obtained from 1 l citrated plasma, an a 2.6×35-cm column of Sepharose CL-2B (Pharmacia, Uppsala, Sweden). Elution was performed with 0.13 M sodium chloride, 0.01 M citrate, 0.01 M Tris-HCl, pH 7.4. Fractions of 6 ml were collected at a flow rate of 24 ml/h. vWF antigen was measured by ELISA by using polyclonal rabbit antiserum against human vWF (RAHu/FVIII, from Nordic (Tillburg, The Netherlands), peroxidase-labeled rabbit antihuman-vWF, mouse monoclonal antibody against rabbit IgG (M737), and the kit for immunostaining (K670) (all from Dako (Glostrup, Denmark)), according to the instructions included with the kit.
SDS agarose gels of these assays are illustrated in FIG. 2 (panels A and B).

vWF from cryoprecipitate = assay: Degradation of plasmatic vWF (cryoprecipitate, highest molecular weight multimers) by vWF protease; type: biochemical, human
BSA = assay: Incubation of other proteins with the purified protease: BSA; type: biochemical; conditions: 0.2 mg/ml, undiluted barium-preincubated protease, 1 M urea, pH 8.0, 24 hours at 37° C.
vWF [2] = assay: Polypeptide subunits and N-terminal sequence of vWF degraded by the purified protease; type: biochemical, human; conditions: from N-terminal sequences of 250, 170 and 140 kD bands
Experimental: For analysis of the amino acid composition and of amino acid sequence, the unreduced peak fraction of the protease and the reduced vWF fragments were dialyzed against 1 mM EDTA, were lyophilized, and were redissolved in 1/50 of the original volume before SDS-PAGE. The HMW protein bands were electrotransferred from the gel to a PVDF (polyvinyliden-difluoride) membrane (BioRad) for 6 hours at 26 V and 0.4 A, using 0.05% SDS, 10% methanol, 0.05 M boric acid, pH 9.0, as transfer buffer. After transfer, the membrane was stained with Coomassie-Blue in 40% methanol, destained in 40% methanol and 10% acetic acid, and air-dried. The excised bands were transferred to the blot cartridge of the Applied Biosystems Model 477A sequenator, which was equipped with on-line high-performance liquid chromatography for analysis of phenylthiohydantoin derivatives, For analysis of amino acid compositions, the protein bands were hydrolyzed in the gas phase over 6N HCl for 22 hours at 110° C. The amino acids were extracted from the PVDF membrane with 70% 0.1 N HCl/30% methanol and were determined by high-performance liquid chromatography as phenylthiocarbamyl derivatives. The amino acid composition of the unreduced protein band coeluted from the Sephacryl S-300 HR column together with the protease activity is shown in Table 1. […]

[3] = Plasmin activity of the protease preparation with chromogenic substrate; type: biochemical; conditions: preparation after copper chelate affinity chromatography
Description: Thus, it was necessary to exclude the possibility that the protease preparation might effect a degradation of the von Willebrand factor multimers due to plasmin present in the preparation rather than as a result of the vWF-specific protease.

human fibrinogen = assay: Incubation of other proteins with the purified protease: fibrinogen; type: biochemical; conditions: 0.4 mg/ml, undiluted barium-preincubated protease, 1 M urea, pH 8.0, 24 hours at 37° C.
calf skin collagen = assay: Incubation of other proteins with the purified protease: collagen; type: biochemical; conditions: 0.4 mg/ml, undiluted barium-preincubated protease, 1 M urea, pH 8.0, 24 hours at 37° C.
[4] = Stability of the protease in solution; type: physicochemical
Description: In the absence of these ions the protease was quite stable in solution, and thus it was possible to purify the enzyme by chromatographic procedures taking place for several days at room temperature.

[5] = tested on: Recombinant vWF factor (r-vWF); assay: Proteolytic fragmentation of recombinant vWF by the vWF protease preparation; type: biochemical
Experimental: The buffer system which had been sufficiently optimized for the instant assaying system thus comprised a dialysis Solution with 1 M urea in 5 mM Tris-HCl at pH 8. Full activation of the protease was achieved by preincubation for 5 minutes at 37° C. with 10 mM barium chloride. In a typical experiment, 50 μl activated protease solution and 100 μl substrate solution were carefully placed on a floating membrane, and incubated in a closed tube for 24 h in a dry oven at 37° C.
Recombinant vWF factor (r-vWF), produced according to FEBS-Letters 375, 259-262 (1995) with a concentration of 104 U (Ag)/ml in 20 mM TBS buffer, pH 8.3, was incubated as described above with the vWF protease preparation according to the invention.
Analysis of the r-vWF and its proteolytic degradation products was performed on 1% and 2% agarose gels, also according to the method of Ruggeri et al. (Blood 57 (1981), 1140-1143). The vWF multimers were made visible by immunoenzymatic staining according to Aihara et al. (Thromb. Haemostas. 55 (1986), 263-267). A rabbit-anti-von Willebrand factor-antiserum (from Dakopatts, Glostrup, Denmark) was used as the primary antibody, and an alkaline phosphatase-conjugated, affinity-purified goat-anti-rabbit IgG H+L-antibody (from Axell Accurate Chemical and Scientific Corp, Westburg, N.Y.) served as the secondary antibody. […]

vWF [6] = conditions: after cleavage with plasmin; cited from earlier work
plasmatic vWF = assay: Degradation of plasmatic vWF (cryoprecipitate) with plasmin; type: biochemical, human; conditions: overnight digestion
r-vWF = assay: Degradation of r-vWF with plasmin; type: biochemical

## vWF: vWF purified by gel filtration of human cryoprecipitate, fractions 12 to 20
[1]
  stability of vWF (multimer pattern): very stable

## protease: von Willebrand factor cleaving protease purified from human plasma, named multimerase; converts singlet vWF to satellite structure
vWF from cryoprecipitate; cryoprecipitate
  multimer pattern of cryoprecipitate vWF on incubation with vWF protease: loss of multimers could be observed over time
vWF from cryoprecipitate; laboratory preparation 10 U (Ag)/ml in 20 mm TBS buffer, pH 8.3
  multimer pattern of highest molecular weight vWF multimers preparation with vWF protease: clear shift towards lower molecular weight multimers
BSA
  degradation of BSA: no degradation
vWF [2]
  peptide bond of vWF cleaved: 842Tyr-843Met
[3]
  plasmin activity: 0.2 U/ml
Human fibrinogen
  degradation of human fibrinogen: no degradation
Calf skin collagen
  degradation of calf skin collagen: no degradation
[4]; in the absence of calcium, strontium and barium ions
  stability of the protease in solution: quite stable
[4]; prolonged preincubation with calcium, strontium and barium, even at physiological salt and without urea
  protease activity after prolonged preincubation: loss of protease activity
[5]; after 3 h
  multimer pattern of r-vWF after incubation with protease: loss of the highest multimers
[5]; after 20 hours
  multimer pattern of r-vWF after incubation with protease: oligomers and multimers could no longer be detected

B1: plasmin: human plasmin from Chromogenics, serine protease used as comparison (protein, UniProt P00747 20-580; P00747 581-810, looked up)
Plasmin heavy chain A: EPLDDYVNTQGASLFSVTKKQLGAGSIEECAAKCEEDEEFTCRAFQYHSKEQQCVIMAENRKSSIIIRMRDVVLFEKKVYLSECKTGNGKNYRGTMSKTKNGITCQKWSSTSPHRPRFSPATHPSEGLEENYCRNPDNDPQGPWCYTTDPEKRYDYCDILECEEECMHCSGENYDGKISKTMSGLECQAWDSQSPHAHGYIPSKFPNKNLKKNYCRNPDRELRPWCFTTDPNKRWELCDIPRCTTPPPSSGPTYQCLKGTGENYRGNVAVTVSGHTCQHWSAQTPHTHNRTPENFPCKNLDENYCRNPDGKRAPWCHTTNSQVRWEYCKIPSCDSSPVSTEQLAPTAPPELTPVVQDCYHGDGQSYRGTSSTTTTGKKCQSWSSMTPHRHQKTPENYPNAGLTMNYCRNPDADKGPWCFTTDPSVRWEYCNLKKCSGTEASVVAPPPVVLLPDVETPSEEDCMFGNGKGYRGKRATTVTGTPCQDWAAQEPHRHSIFTPETNPRAGLEKNYCRNPDGDVGGPWCYTTNPRKLYDYCDVPQCAAPSFDCGKPQVEPKKCPGR
Plasmin light chain B: VVGGCVAHPHSWPWQVSLRTRFGMHFCGGTLISPEWVLTAAHCLEKSPRPSSYKVILGAHQEVNLEPHVQEIEVSRLFLEPTRKDIALLKLSSPAVITDKVIPACLPSPNYVVADRTECFITGWGETQGTFGAGLLKEAQLPVIENKVCNRYEFLNGRVQSTELCAGHLAGGTDSCQGDSGGPLVCFEKDKYILQGVTSWGLGCARPNKPGVYVRVSRFVTWIEGVMRNN
modifications: Plasmin
notes: human plasmin from Chromogenics, serine protease used as comparison
vWF [6]
  platelet agglutinating activity (ristocetin cofactor) retained by high molecular weight core region of vWF: about 70%
Plasmatic vWF
  degradation of plasmatic vWF: completely degraded
r-vWF; overnight digestion
  degradation of recombinant vWF: completely degraded
r-vWF; plasmin 0.2 U/ml admixed 1:1 with r-vWF, 37° C.
  degradation of r-vWF multimers (kinetic examination): successive degradation of the multimers over 29 h
r-vWF; plasmin concentration reduced to 1:10
  degradation of r-vWF: degraded more slowly
